Here are results for five molecules from paper PMC4434603 (Journal of biomolecular screening, 2011).

One assay addresses T1, His-RORα-LBD (Homo sapiens, UniProt P35398).
T1 sequence (P35398 with tags, fused parts or gaps): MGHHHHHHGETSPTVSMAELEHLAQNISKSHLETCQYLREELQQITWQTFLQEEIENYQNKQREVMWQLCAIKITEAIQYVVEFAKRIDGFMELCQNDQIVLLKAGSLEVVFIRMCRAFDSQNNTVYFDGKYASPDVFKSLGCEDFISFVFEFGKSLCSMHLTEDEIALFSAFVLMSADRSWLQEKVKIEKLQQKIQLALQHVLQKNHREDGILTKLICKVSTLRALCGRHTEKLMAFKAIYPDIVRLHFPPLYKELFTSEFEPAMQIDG
Description: HTS LOPAC AlphaScreen screen and compound response curves. Type of assay: biochemical. Particulars: CRC; for EC50: read-out: Final EC50, 50 µM top, 3-fold dilutions, 10 points, triplicate. In general terms: Alpha assays give light when donor and acceptor beads are brought close together.

Assay [1] has as its target T2, Biotin-PGC-1α NR1 peptide (biotin on the N-terminus).
T2 peptide: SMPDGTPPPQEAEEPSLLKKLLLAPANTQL
Description: AlphaScreen or HTRF.

What is called EC50 is the concentration that produces a half-maximal response. `CCCCCCC(C)(C)c1ccc([C@@H]2C[C@H](O)CC[C@H]2CCCO)c(O)c1` [C 1112]: at His-RORα-LBD, the “Hill Slope” value was 1.73 and the EC50 stood at 224 nM.
On the same counts, the results for `CC(=O)[C@H]1CC[C@H]2[C@@H]3CCC4=CC(=O)CC[C@]4(C)[C@H]3CC[C@]12C` [P 0130] are 1.07 and 833 nM.
The matching figures for `CC(=O)[C@H]1CCC2C3CC[C@H]4C[C@H](O)CC[C@]4(C)C3CC[C@@]21C` (stereo partly drawn) [P 8887]: 0.28 and 331 nM.
On the same counts, the results for `C[C@]12C=CC(=O)C=C1CC[C@@H]1C2=CC[C@]2(C)[C@@H](C(=O)CN3CCN(c4cc(N5CCCC5)nc(N5CCCC5)n4)CC3)CC[C@@H]12.O=C(O)/C=C\C(=O)O` [U 5882] are 1.79 and 393 nM.

B1: His-RORα-LBD (262–523) (domain or fragment)
chain: GETSPTVSMAELEHLAQNISKSHLETCQYLREELQQITWQTFLQEEIENYQNKQREVMWQLCAIKITEAIQYVVEFAKRIDGFMELCQNDQIVLLKAGSLEVVFIRMCRAFDSQNNTVYFDGKYASPDVFKSLGCEDFISFVFEFGKSLCSMHLTEDEIALFSAFVLMSADRSWLQEKVKIEKLQQKIQLALQHVLQKNHREDGILTKLICKVSTLRALCGRHTEKLMAFKAIYPDIVRLHFPPLYKELFTSEFEPAMQIDG
In the case of B1, the EC50 in assay [1] is 36 nM.
